Assay results from the NIST ThermoML archive (doi:10.1021/je060271a).

Details: 303.16 K, Liquid, Vibrating tube method

CCCCCC(=O)OCC(COC(=O)CCCCC)(COC(=O)CCCCC)COC(=O)CCCCC [pentaerythritol tetrahexanoate]
Details | mass density [kg/m3]
380.8 kPa | 988.5
382.9 kPa | 988.7
385.3 kPa | 988.6
387.4 kPa | 988.6
454.3 kPa | 988.6
457.1 kPa | 988.6
461.3 kPa | 988.6
465.1 kPa | 988.6
468 kPa | 988.6
470.8 kPa | 988.7
474.1 kPa | 988.6
478 kPa | 988.6
481.2 kPa | 988.6
484.7 kPa | 988.7
488.4 kPa | 988.7
491.7 kPa | 988.7
495.5 kPa | 988.7
498.8 kPa | 988.7
502.4 kPa | 988.7
505.6 kPa | 988.6
509.2 kPa | 988.8
513.8 kPa | 988.7
517.4 kPa | 988.7
521.2 kPa | 988.6
525.6 kPa | 988.7
529.6 kPa | 988.8
534.1 kPa | 988.7
537.9 kPa | 988.6
542.3 kPa | 988.9
546.9 kPa | 988.7
550.9 kPa | 988.7
555.3 kPa | 988.8
559.5 kPa | 988.8
564.3 kPa | 988.8
569 kPa | 988.8
574.4 kPa | 988.9
692 kPa | 988.8
698.5 kPa | 988.8
706.1 kPa | 988.8
712.5 kPa | 988.8
719.3 kPa | 988.9
727 kPa | 988.7
734.3 kPa | 988.8
741.2 kPa | 988.8
748.1 kPa | 988.8
756.7 kPa | 988.8
763.8 kPa | 988.9
771.6 kPa | 988.9
779.1 kPa | 988.8
788.5 kPa | 988.9
796.3 kPa | 988.8
804.1 kPa | 988.8
811.9 kPa | 988.9
821.6 kPa | 988.9
829.8 kPa | 988.8
848 kPa | 988.8
856.6 kPa | 988.9
864.9 kPa | 989
1404 kPa | 989.4
1416.2 kPa | 989.4
1431.1 kPa | 989.2
1443.8 kPa | 989.3
1456.5 kPa | 989.3
1642.7 kPa | 989.5
1657.5 kPa | 989.4
1672.3 kPa | 989.4
1686.8 kPa | 989.3
1704.7 kPa | 989.4
1818.6 kPa | 989.6
1834.9 kPa | 989.6
1940.6 kPa | 989.6
1957.6 kPa | 989.6
1975.3 kPa | 989.7
1996.3 kPa | 989.5
2014.2 kPa | 989.6
2035.9 kPa | 989.6
2053.6 kPa | 989.7
2072.3 kPa | 989.7
2129.6 kPa | 989.6
2148.3 kPa | 989.7
2190 kPa | 989.9
2209.4 kPa | 989.7
2272.4 kPa | 989.7
4203.4 kPa | 991.1
4236.8 kPa | 991
4264.7 kPa | 991.2
4292.6 kPa | 991.1
4320.1 kPa | 991.1
4352.9 kPa | 991.2
4379.7 kPa | 991.1
4406.5 kPa | 991.2
4438.4 kPa | 991.1
4464.5 kPa | 991.2
4490.5 kPa | 991.3
4516.1 kPa | 991.2
4546.4 kPa | 991.3
4570.9 kPa | 991.3
4594.9 kPa | 991.4
4622.1 kPa | 991.2
4643.9 kPa | 991.3
4664.2 kPa | 991.3
4683 kPa | 991.5
4704.7 kPa | 991.4
4723 kPa | 991.4
4740.8 kPa | 991.3
4757.6 kPa | 991.4
4774.9 kPa | 991.4
4794.3 kPa | 991.6
4810.9 kPa | 991.4
4827 kPa | 991.4
4842.8 kPa | 991.5
4861.3 kPa | 991.4
4908.5 kPa | 991.5
5374.3 kPa | 991.8
5390.7 kPa | 991.8
5411 kPa | 991.8
5427.2 kPa | 991.8
5447.1 kPa | 991.9
5464.4 kPa | 991.8
5481.4 kPa | 991.9
5498.1 kPa | 991.8
5518.7 kPa | 991.9
5591.9 kPa | 992
5609.7 kPa | 992
5627.2 kPa | 991.9
5647.7 kPa | 991.9
5665.4 kPa | 992
5875.7 kPa | 992.1
5894 kPa | 992.1
5931.3 kPa | 992.1
5953.6 kPa | 992.2
5972 kPa | 992.2
5990.6 kPa | 992.2
6012.9 kPa | 992.2
6031.6 kPa | 992.2
6050.3 kPa | 992.2
6072.9 kPa | 992.2
6111.5 kPa | 992.2
10602 kPa | 995.1
10632 kPa | 995.1
10660 kPa | 995.1
10689 kPa | 995
10724 kPa | 995.1
10753 kPa | 995.2
10782 kPa | 995.1
